Laboratory results as given in US8916712B2, “Compositions and methods for cytoprotection” (Board of Trustees of the University of Arkansas, priority 2007, dated 2014).

Key:
[1] = target: T1, rat serum DNase (predominantly rat DNase I) (Rattus norvegicus, UniProt P21704); test: Plasmid incision assay of endonuclease activity, rat serum DNase; type: biochemical; settings: 0, 100 or 200 μM; 1 hour at 37° C.; pBR322 plasmid DNA
T1 construct: rat serum DNase (which is predominantly rat DNase I); from tissue; host or cells: rat serum
T1 sequence (P21704 23-284): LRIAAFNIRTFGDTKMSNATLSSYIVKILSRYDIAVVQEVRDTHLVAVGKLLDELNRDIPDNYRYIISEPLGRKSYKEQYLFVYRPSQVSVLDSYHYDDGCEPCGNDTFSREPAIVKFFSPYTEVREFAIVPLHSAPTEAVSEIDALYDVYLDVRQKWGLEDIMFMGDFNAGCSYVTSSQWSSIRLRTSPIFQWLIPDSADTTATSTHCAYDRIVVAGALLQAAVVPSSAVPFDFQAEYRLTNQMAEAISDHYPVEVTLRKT
Experimental: (§1) Endonuclease activity was measured using a plasmid incision assay. Activity was measured in 20 μl samples containing 1 μg pBR322 plasmid DNA, 10 mM Tris-HCl, pH 7.7, 25 μg/ml bovine serum albumin V fraction, 0.5 mM dithiothreitol, 5 mM MgCl2, 2 mM CaCl2, and 2 μl endonuclease. After 1 hour incubation at 37° C., the reaction was stopped by the addition 5 μl 1% SDS, 100 mM EDTA. Digested DNA was then subjected to a 1% agarose gel electrophoresis at 7 V/cm for 1 hour at room temperature. The gel was stained in 0.5 μg/ml ethidium bromide solution for 20 minutes and photographed under […]. Scanning densitometer Fotodyne (Fotodyne Inc., Hartland, Wis.) was utilized to quantify the relative amount of endonuclease-treated plasmid DNA present in a covalently closed circular DNA (cccDNA), open circular DNA (ocDNA) or linear DNA (linDNA). One endonuclease unit was defined as the amount of enzyme required to convert 1 μg cccDNA to ocDNA and linDNA.
(§2) Recombinant DNase I and rat serum DNase (which is predominantly rat DNase I) were incubated with 0, 100, or 200 μM of a Zn^2+-chelate (i.e., Zn-3,5-diisopropylsalicylic acid (DIPS), Zn-gluconate, or Zn-glycinate), a ligand (i.e., DIPS, gluconic acid, or glycine, as negative controls), or ZnCl2 (as positive control).

white pulp splenocytes = test: Total body irradiation of mice (8 Gy), TUNEL-positive white pulp splenocytes; type: in vivo, mouse
Source text: Mice were exposed to total body irradiation and the radioprotective effects of Zn^+-chelates administered before or after the irradiation were examined. Each unanesthetized mouse was placed temporarily in a well ventilated plexiglass restrainer and exposed to total body irradiation from a cesium irradiator. A dose of 8 Gy was chosen on the basis of previous studies utilizing male CD-1 mice (Bichay et al., 1986, supra). A total of 6-10 animals per group were used. The animals were allowed to survive for 36 hr after irradiation.
To test for radioprotective effects, Zn-DIPS was injected subcutaneously twice a day 15 mg/kg each time (i.e., 30 mg/kg/day). One group of animals (“before”) received Zn-DIPS starting 2 days before irradiation and continued until 36 hr after irradiation. Another group (“after”) was injected with Zn-DIPS about 30 min […] irradiation and continued until euthanasia. “Vehicle” control animals were injected with vehicle (i.e., saline) for the duration of the experiment, and irradiated with the same dose.
FIG. 12 presents the number of TUNEL-positive cells in white pulp splenocytes from the different groups.

[2] = target: T2, recombinant human DNase I (Homo sapiens, UniProt P24855); test: Plasmid incision assay of endonuclease activity, recombinant DNase I; type: biochemical
T2 construct: Recombinant DNase I was produced using a similar approach; made in house
T2 sequence (P24855 23-282): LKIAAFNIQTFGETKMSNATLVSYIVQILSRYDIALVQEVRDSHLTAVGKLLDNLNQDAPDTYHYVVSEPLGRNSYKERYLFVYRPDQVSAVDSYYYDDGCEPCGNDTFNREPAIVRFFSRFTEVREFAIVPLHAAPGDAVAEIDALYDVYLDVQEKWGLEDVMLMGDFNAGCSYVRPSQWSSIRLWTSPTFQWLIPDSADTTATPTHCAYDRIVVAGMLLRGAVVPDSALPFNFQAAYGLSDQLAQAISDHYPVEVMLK
Experimental: It was hypothesized that Zn^2+-chelates of aminothiols could provide radioprotection via their direct inhibition of nucleases and their antioxidant properties (i.e., prevent nuclease induction and release). To test this hypothesis, the activity of Zn(II) chelates to inhibit nucleases was assayed in vitro. For this, DNase I and EndoG were cloned, recombinant nuclease were expressed and purified for the in vitro assay. Human and mouse mature EndoG cDNA was reverse transcribed by RT-PCR from either normal human breast epithelial HMEC cells (Clonetics, Walkersville, Md.) or immortalized mouse proximal tubule epithelial TKPTS cells (obtained from D. Elsa Bello-Reuss, University of Texas Medical Branch, Galveston). The plasmid for mature human EndoG (A49-K297) with a C-terminal histidine tag and mouse mature EndoG (A45-K294) with a C-terminal histidine tag were constructed by inserting coding cDNA into pET29b(+) (Novagen, San Diego, Calif.) and expressed in Escherichia coli BL21 (DE3) cells using standard procedures. Expression of the recombinant proteins was induced by IPTG. The expressed recombinant protein was purified by HisTrap FF crude Kit (GE Healthcare, Uppsala, Sweden) and stored in 20 mM Tris-HCl, ph 7.5, 0.5 M NaCl, 2 mM 2-mercaptoethanol, and 50% glycerol.
as §1, §2

FRTL-5 thyroid cells = test: Radiation-induced thyroid cell death (450 Gy), LDH release assay or Comet assay; type: cell-based; settings: added after radiation, 24 hr
Experimental: FRTL-5 thyroid cells (ATCC, catalog #CRL8305) were irradiated with 450 Gy without or with Zn^2+-chelates added before and/or after irradiation. […] In another experiment, Zn^2+-chelates (i.e., Zn-captopril, Zn-NAC, Zn-penicillamine, or Zn-PTCA) were added to human U937 cells either 30 minutes before, immediately after, or up to 4 hours after irradiation (4 Gy).

Inhibition of serum DNase activity [1]: inhibited | Inhibition of DNase I activity ([2]; 0, 100 or 200 μM, 1 hour at 37° C., pBR322 plasmid DNA): inhibited | Ranking of nuclease inhibition among the Zn^2+-chelates tested ([2]; DNase I and serum DNase, FIG. 5): best inhibition
Substance: Zn-3,5-diisopropylsalicylic acid [Zn-DIPS]
Radioprotection (TUNEL-positive white pulp splenocytes), administered before irradiation (white pulp splenocytes; 15 mg/kg s.c. twice a day from 2 days before until 36 hr after irradiation): partial radioprotection | Radioprotection (TUNEL-positive white pulp splenocytes), administered after irradiation (white pulp splenocytes; 15 mg/kg s.c. twice a day, "after" group): partial radioprotection | Protection of spleen compared with inactivation of DNase I (white pulp splenocytes; versus DNase I knock-out mice): better protection | Protection from radiation-induced thyroid cell death (FRTL-5 thyroid cells): provided protection
